In data set [1] the test system is ALK2 (Alk2p, cytochrome P450 CYP52). As to the kind of experiment: In vitro enzymatic assay: conversion of radiolabeled fatty acids by microsomes of S. cerevisiae WAT11 expressing ALK2 (TLC). As to conditions: yeast microsomes, NADPH; for Degree of conversion (%): gene ALK2, substrate 100 μM, ND: not detectable. The method, then:
(§1) In order to confirm their hypotheses according to which these enzymes catalyze fatty acids by oxygenation reaction, the inventors performed a screening using microsomes of S. cerevisiae WAT11 yeast transformed with 6 of the genes of the CYP52 family, cloned into Yarrowia lipolytica: ALK2, ALK3, ALK4, ALK5, ALK6 and ALK11.
(§2) The incubations were carried out on the model substrate constituted by lauric acid (C12.0), in the presence of NADPH.
(§3) The reaction mixtures were deposited on TLC plates, and then developed and analyzed.
(§4) In order to study the substrate specificity of these enzymes, the inventors incubated each microsomal preparation with free fatty acids of different size and at various levels of unsaturation (for example, myristic acid—C14:0, palmitic acid—C16:0, stearic acid—C18:0, oleic acid—C18:1 and linoleic acid—C18:2).
(§5) The expression of the proteins of the 6 members of the 6YP52 family cloned was carried out using a heterologous system specifically designed for the expression of cytochrome P450 enzymes, based on the pYeDP60 vector and the Saccharomyces cerevisiae WAT11 strain. The WAT11 strain was transformed with each of the pYeDP60 constructs using the lithium acetate LiAc method. The transformants were selected by plating out on YNB plates lacking uracil. The yeasts are left in culture and the expression of cytochrome P450 was induced as described in Pompon et al., 1996. For each transformant, the microsomes were prepared by manually breaking the cells using glass beads (0.45 mm in diameter) in 50 mM of a Tris-HCl buffer (pH 7.5) containing 1 mM EDTA and 600 mM of sorbitol. The homogenate was subjected to centrifugation (10 000 g-15 min) and the resulting supernatant was subjected to ultracentrifugation (100 000 g-1 h). The microsome pellet was resuspended in 50 mM Tris-HCl (pH 7.4), mM EDTA and 30% (v/v) of glycerol with a Potter-Elvehjem homogenizer. The volume of buffer used for resuspending the microsomes was determined by the approximate weight of the wet pellet of yeast obtained after growth (1 ml of buffer per 2 g of cell pellet). The total concentrations of protein in the microsomes were estimated using the Bradford test and homogenized at 15 mg/ml using the appropriate volume of resuspension buffer. The microsome preparation was stored at −20° C. All the experiments for the microsome preparations were carried out between 0 and 4° C.
(§6) The activity of the cytochrome P450 enzymes was evaluated in vitro using various radiolabeled fatty acids. The standard test (0.1 ml) contained […] sodium phosphate (pH 7.4), […] NADPH, a radiolabeled substrate (100 μM) and 0.15 mg of microsomal protein. The reactions were carried out in a waterbath at 27° C. with continuous shaking. The reaction is initiated by adding NADPH and stopped after 20 min by adding 20 μl of acetonitrile containing 0.2% of acetic acid.
The reaction mixtures were deposited directly on TLC plates covered with silica in order to separate the incubation products from the initial substrate. The plates were developed using an ether/petroleum ether/formic acid mixture (50:50:1, v/v/v). The plates were scanned using a radioactivity detector. The chromatograms resulting from the TLC make it possible to determine the degrees of conversion for each cytochrome P450/fatty acid combination, based on the radioactivity detected by the reader. […]

The test system of data set [2] is ALK5 (Alk5p, cytochrome P450 CYP52). As to the kind of experiment: In vitro enzymatic assay: conversion of radiolabeled fatty acids by microsomes of S. cerevisiae WAT11 expressing ALK5 (TLC). As to conditions: yeast microsomes, NADPH; for Degree of conversion (%): gene ALK5, substrate 100 μM, ND: not detectable. How it is done:
as §1, §2, §3, §4, §5, §6
The reaction mixtures were deposited directly on TLC plates covered with silica in order to separate the incubation products from the initial substrate. The plates were developed using an ether/petroleum ether/formic acid mixture (50:50:1, v/v/v). The plates were scanned using a radioactivity detector. The chromatograms resulting from the TLC make it possible to determine the degrees of conversion for each cytochrome P450/fatty acid combination, based on the radioactivity detected by the reader. The mobility of the products on the TLC plate is a good indication of the type of oxygenation reaction that was carried out on the substrate (i.e. hydroxylation, epoxidation, diacid formation).

In data set [3] the test system is ALK3 (Alk3p, cytochrome P450 CYP52). As to the kind of experiment: In vitro enzymatic assay: conversion of radiolabeled fatty acids by microsomes of S. cerevisiae WAT11 expressing ALK3 (TLC, GC-MS). As to conditions: NADPH; for Degree of conversion (%): gene ALK3, substrate 100 μM, ND: not detectable; for Products of conversion by Alk3p seen in TLC chromatograms: fresh microsomes, standardized total protein, duplicate; for Reaction product of Alk3p identified by GC-MS (first product peak) / Reaction product of Alk3p identified by GC-MS (second peak, diacid): incubation with Alk3p microsomes, GC-MS of methylated/TMS derivatives. The method, then:
as §1, §2, §3, §4
Preparations of fresh microsomes of yeast expressing Alk3p were carried out. The inventors standardized the total protein content and performed new incubations with lauric acid and palmitic acid and also the abovementioned three C18 fatty acids (stearic acid, oleic acid and linoleic acid). All the reactions were carried out in duplicate in the presence of NADPH for analysis by TLC and GC-MS.
as §5, §6
The reaction mixtures were deposited directly on TLC plates covered with silica in order to separate the incubation products from the initial substrate. The plates were developed using an ether/petroleum ether/formic acid mixture (50:50:1, v/v/v). The plates were scanned using a radioactivity detector.

The test system of data set [4] is ALK11 (Alk11p, cytochrome P450 CYP52). As to the kind of experiment: In vitro enzymatic assay: conversion of radiolabeled fatty acids by microsomes of S. cerevisiae WAT11 expressing ALK11 (TLC). As to conditions: yeast microsomes, NADPH; for Degree of conversion (%): gene ALK11, substrate 100 μM, ND: not detectable. How it is done: as §1, §2, §3, §4
as §5, with “The microsome preparation was stored at −20° C. All the experiments for the microsome preparations were carried out between 0 and 4° C.” left out
(§7) The activity of the cytochrome P450 enzymes was evaluated in vitro using various radiolabeled fatty acids. […]
The reaction mixtures were deposited directly on TLC plates covered with silica in order to separate the incubation products from the initial substrate. […] The plates were scanned using a radioactivity detector. The chromatograms resulting from the TLC make it possible to determine the degrees of conversion for each cytochrome P450/fatty acid combination, based on the radioactivity detected by the reader. […]

For data set [5], the system named is ALK4 (Alk4p, cytochrome P450 CYP52). As to the kind of experiment: In vitro enzymatic assay: conversion of radiolabeled fatty acids by microsomes of S. cerevisiae WAT11 expressing ALK4 (TLC). As to conditions: gene ALK4, substrate 100 μM, yeast microsomes, NADPH, ND: not detectable. The method, then:
as §1, §2
The reaction mixtures were deposited on TLC plates, and then developed and analyzed. […]
The expression of the proteins of the 6 members of the 6YP52 family cloned was carried out using a heterologous system specifically designed for the expression of cytochrome P450 enzymes, based on the pYeDP60 vector and the Saccharomyces cerevisiae WAT11 strain. […] The volume of buffer used for resuspending the microsomes was determined by the approximate weight of the wet pellet of yeast obtained after growth (1 ml of buffer per 2 g of cell pellet). […]
as §7
The reaction mixtures were deposited directly on TLC plates covered with silica in order to separate the incubation products from the initial substrate. […] The plates were scanned using a radioactivity detector. […]

Take `CCCCCCCCCCCCCCCC(=O)O` [C16:0, palmitic acid]: the “Degree of conversion (%)” value in data set [1] was 0.5%; in data set [2] it was 12%.

With `CCCCCCCCCCCCCC(=O)O` [C14:0, myristic acid], the “Degree of conversion (%)” value in data set [3] (yeast microsomes, TLC) came to 68%; in data set [1], 1.1%; in data set [2] it was 27%.

Turning to `CCCCCCCC/C=C\CCCCCCCC(=O)O` [C18:1, oleic acid], in data set [3] (TLC), the “Products of conversion by Alk3p seen in TLC chromatograms” value (shortened to “Products of conversion by Alk3p seen”) is “two products”. Besides, the “Degree of conversion (%)” value was 27% in data set [3] (yeast microsomes, TLC); 13% in data set [2]; 2% in data set [4]. Also, the “Reaction product of Alk3p identified by GC-MS (first product peak)” value (from here on “Reaction product … (first product peak)”) in data set [3] is reported as 18-hydroxyoleic acid derivative. For the same compound, in data set [3], the “Reaction product of Alk3p identified by GC-MS (second peak, diacid)” value is 1,18-octadeca-9-enedioic acid.

`CCCCC/C=C\C/C=C\CCCCCCCC(=O)O` [C18:2, linoleic acid]: in data set [3] (TLC), the “Products of conversion by Alk3p seen” value is “two products”. The “Degree of conversion (%)” value is 35% in data set [3] (yeast microsomes, TLC); 3% in data set [5]; 11% in data set [2]; 4% in data set [4]. The “Reaction product … (first product peak)” value in data set [3] is given as 18-hydroxylinoleic acid derivative. Besides, the “Reaction product of Alk3p identified by GC-MS (second peak, diacid)” value in data set [3] is recorded as 1,18-octadeca-9,12-dienedioic derivative.

`CCCCCCCCCCCCCCCCCC(=O)O` [C18:0, stearic acid]: the “Products of conversion by Alk3p seen” value in data set [3] (TLC) was “only an w-oxidation product”. The “Degree of conversion (%)” value in data set [3] (yeast microsomes, TLC) stood at 3%; in data set [2] it was 2%. Besides, the “Reaction product … (first product peak)” value in data set [3] is on record as 18-hydroxystearic acid derivative. Also, the “Conversion of the fatty acid by Alk2p, in words” value in data set [1] is given as “No significant conversion”.

Turning to `CCCCCCCCCCCC(=O)O` [C12:0, lauric acid], the “Products of conversion by Alk3p seen” value in data set [3] (TLC) is “two products”. Further, in data set [3] (yeast microsomes, TLC), the “Degree of conversion (%)” value is 65% and the “Conversion of the fatty acid by Alk3p, in words” value is on record as “capable of metabolizing”. Besides, in data set [3], the “Reaction product … (first product peak)” value was 12-hydroxylauric acid derivative. In data set [1], the “Degree of conversion (%)” value was 7.3% and the “Conversion of the fatty acid by Alk2p, in words” value was “capable of metabolizing”. Also, in data set [2], the “Degree of conversion (%)” value was 24% and the “Conversion of the fatty acid by Alk5p, in words” value is “capable of metabolizing”. In addition, in data set [4], the “Degree of conversion (%)” value is “Traces” and the “Conversion of the fatty acid by Alk11p, in words” value is “capable of metabolizing”.

Source of the values: patent publication US20180363011A1, “MICROORGANISMS AND USE THEREOF FOR THE PRODUCTION OF DIACIDS” (FONDS DE DEVELOPPEMENT DES FILIERES DES OLEAGINEUX ET DES …, priority 2015, published 2018).
